Data taken from patent US20020183290A1, “Adrenergic receptor antagonists selective for both alpha1A-and alpha1D-subtypes and uses therefor” (Recordati S.A., Chemical and Pharmaceutical Company, priority 2001, published 2002).
Read-outs that look alike come from different tables or passages of the source.

How the values were obtained:
LUTS = LUTS secondary to BPH; relaxing effects on prostate smooth muscle were present; cited from earlier work
[1] = system: conscious rats with partial urethral obstruction; experiment: Cystometry in conscious rats obstructed by partial urethra ligature (unstable-bladder contractions); assay type: in vivo, rat; conditions: for inhibition in vivo at 1 mg/kg: Rattus norvegicus, 2 min
From the text: A useful animal model system for measuring such pharmacological activity is, without limitation, cystometry in conscious rats with partial bladder-neck obstruction. […] This model is reported in the literature as related to LUTS occurring in patients having obstructive urethral syndromes (Michel, 2000, Drugs of Today. 386 (Supp. B2): 3-6)
In order to obtain a partial obstruction of the urethra, the method previously reported by Malgren (Nalgren et al., 1987, J. Urol. 137:1291-1294; 1988, Neurourol. Urodyn. 6:371), was followed with minor modifications (Guarneri et al., 1991, Pharmacol. Res. 24:263).
Female rats of the Sprague-Dawley strain [Crl:CD(SD)BR, from Charles River Italia, Calco, Como, Italy] weighing 225-275 g were used. The animals were maintained in constant temperature and humidity conditions, on a forced 12-hour light-dark cycle and with food and water ad libitum for at least one week before the experiment.
After being anaesthetized with 3 ml/kg i.p. equitensin (pentobarbital 1.215 g, chloral hydrate 5.312 g, magnesium sulphate 2.657 g, ethanol 12.5 ml, propylene glycol 49.5 ml, distilled water to 125 ml of final volume), the rats were placed in a supine position and the bladder and urethra were exposed via an incision in the shaven abdomens and gently pulling away the muscle portion. The urethra was cannulated with a polyethylene tube with an outside diameter of 1.22 mm, and the urinary bladder was then emptied and, via the cannula introduced through the urethra, filled with physiological saline. A silk (Ethicon 3/0) ligature was placed around the urethra with the cannula inside and the intraurethral cannula was then removed. The abdominal incision was sutured and, immediately after the operative procedure, antibiotic medication (penicillin G 200 000 I.U./kg i.p. and streptomycin 260 mg/kg i.p.) was performed.
Three weeks after the procedure for partially obstructing the urethra, the animals were prepared for cystometry by surgical insertion into the bladder of a catheter, through which the bladder was gradually filled.
The rats, anaesthetised with equitensin 3 ml/kg i.p., were placed in a supine position and, via an incision of about 10 mm in the abdominal wall, the urinary bladder was exposed and gently freed from surrounding tissues.
The urinary bladder was emptied manually and cannulated, via a small incision at the bladder top, with a polyethylene cannula (type PE-50, 0.58 mm I.D. ×0.96 mm O.D.), which was permanently secured to the bladder with silk thread.
The cannula was exposed through a subcutaneous tunnel in the retroscapular area, where it was fastened with a plastic adapter, in order to avoid the risk of removal by the animal. After washing the urinary bladder with physiological saline, the catheter was sealed using a small flame and the abdominal incision was sutured.
To allow evaluation of the effect of a test compound after intravenous administration, the jugular vein was cannulated with a polyethylene cannula (type PE-50, 0.58 mm I.D.×0.96 mm O.D.) filled with heparinised physiological saline. As for the bladder catheter, this cannula, too, was exteriorised, secured and sealed in the retroscapular area.
Two days after the operation, the rats, fasted overnight, were placed in Bollman's cages or in Bollman's cages modified so as to have an opening in the bottom to allow collection of urinated fluid.
After an adaptation period of 20 minutes, the free end of the bladder cannula was connected to a pressure transducer and a special apparatus which allowed infusion into the urinary bladder of physiological saline at 37° C. at a constant rate of 10 ml/hour. Intravesical pressure changes caused by bladder filling were recorded by the pressure transducer which was connected to a recording polygraph.
From the cystometrograms, the frequency and mean amplitude of spontaneous bladder contractions not inducing micturition, termed “unstable-bladder contractions” (UBC), within 2 minutes prior to micturition were evaluated. […]

Structure (SMILES): COc1ccccc1N1CCN(CCCNC(=O)c2cccc3c(=O)c(C)c(-c4ccccc4)oc23)CC1 [Rec 15/2739]
- Relief of LUTS in clinical trial (LUTS): did not result in relief of LUTS
- inhibition in vivo at 1 mg/kg ([1]; read-out: % inhibition of amplitude of non-effective micturition contractions): 29%
- inhibition in vivo at 1 mg/kg ([1]; read-out: % inhibition of frequency of non-effective micturition contractions): 28%
- Amplitude of non-effective micturition contractions, After Treat. ([1]; after treatment, 1.0 mg/kg): 7.3 ± 1.3 mmHg
- Frequency (number) of non-effective micturition contractions, After Treat. ([1]; after treatment, 1.0 mg/kg): 4.8 ± 0.2
- Activity as inhibitors of unstable-bladder contractions (in words) ([1]; obstructed conscious rats, summary of Tables 1 and 2): poorly active
